Experimental data taken from patent US20100267561A1, “HERBICIDAL PYRIDAZINONE DERIVATIVES” (priority 2007, published 2010).

Tests used:
Format in all cases: in vivo
[1] = system: large crabgrass (Digitaria sanguinalis); test: Test B pre-/postemergence plant response
In short: (§1)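 Visual scoring from 0 (no effect) to 100 (complete control) against untreated controls was done 13 to 15 days after greenhouse treatment. Chemicals were formulated in a surfactant-containing non-phytotoxic solvent and applied to soil preemergence or to 1- to 4-leaf (2-18 cm) plants postemergence.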

[2] = system: wheat (Triticum aestivum); test: Test B pre-/postemergence plant response
In short: as §1

soybean (Glycine max) = test: Test B pre-/postemergence plant response
In short: as §1

corn (Zea mays) = test: Test B pre-/postemergence plant response
In short: as §1

[3] = system: cocklebur (Xanthium strumarium); test: Test B pre-/postemergence plant response; conditions: for Cocklebur plant response rating: 8 g ai/ha
In short: as §1

[4] = system: common (oilseed) sunflower (Helianthus annuus); test: Test B pre-/postemergence plant response; conditions: Preemergence
In short: as §1

[5] = system: surinam grass (Brachiaria decumbens); test: Test B pre-/postemergence plant response
In short: as §1

[6] = system: lambsquarters (Chenopodium album); test: Test B pre-/postemergence plant response
In short: as §1

[7] = system: common ragweed (Ambrosia elation); test: Test B pre-/postemergence plant response
In short: as §1

[8] = system: bermudagrass (Cynodon dactylon); test: Test B pre-/postemergence plant response; conditions: for Bermudagrass plant response rating: 8 g ai/ha
In short: as §1

kochia (Kochia scoparia) = test: Test B pre-/postemergence plant response
In short: as §1

[9] = system: Russian thistle (Salsola iberica); test: Test B pre-/postemergence plant response; conditions: Preemergence
In short: as §1

[10] = system: goosegrass (Eleusine indica); test: Test B pre-/postemergence plant response
In short: as §1

[11] = system: ducksalad (Heteranthera limosa); test: Test B flooded paddy test plant response; conditions: Flood (flooded paddy test), scale 0 to 100, 0 no effect, 100 complete control
In short: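 Step one: raise plants to 2 leaves. Step two: flood pots 3 cm over the soil and apply compound into the water, keeping this depth. Step three: after 13–15 greenhouse days, score visually versus controls, 0–100, where 100 means complete control.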

[12] = 8 g ai/ha, postemergence, 0-100 scale
[13] = Postemergence, 16 g ai/ha, scale 0 to 100
[14] = Postemergence, 31 g ai/ha, scale 0 to 100
[15] = Postemergence, 62 g ai/ha, scale 0 to 100, 0 no effect, 100 complete control
[16] = Preemergence, 31 g ai/ha, 0 to 100 scale, 0 no effect, 100 complete control
[17] = Preemergence, 62 g ai/ha, scale 0 to 100
[18] = Preemergence, 8 g ai/ha, scale 0 to 100
[19] = Preemergence, 16 g ai/ha, scale 0 to 100
[20] = Preemergence, 31 g ai/ha, scale 0 to 100 (0 no effect, 100 complete control)
[21] = Preemergence, 62 g ai/ha, 0 to 100 scale, 0 no effect, 100 complete control
[22] = Preemergence, 16 g ai/ha, scale 0 to 100 (0 no effect, 100 complete control)
[23] = 31 g ai/ha, scale 0 to 100 (0 no effect, 100 complete control)

Cc1cc(-c2ccc(Cl)cc2)nn1-c1c(OC(=O)Oc2ccccc2)cnn(C)c1=O [Compound 54]
Crabgrass, Large plant response rating [1, 12]: 65 | Plant response rating, Crabgrass, Large [1, 13]: 85 | Plant response rating, Crabgrass, Large [1, 14]: 98 | Plant response rating, Crabgrass, Large [1, 15]: 98 | Plant response rating, Crabgrass, Large [1, 16]: 0 | Plant response rating, Crabgrass, Large [1, 17]: 0 | Crabgrass, Large plant response rating [1, 18]: 0 | Crabgrass, Large plant response rating [1, 19]: 0 | Wheat plant response rating [2, 12]: 0 | Plant response rating, Wheat [2, 13]: 30 | Plant response rating, Wheat [2, 14]: 60 | Plant response rating, Wheat [2, 15]: 60 | Plant response rating, Wheat [2, 20]: 10 | Plant response rating, Wheat [2, 21]: 50 | Wheat plant response rating [2, 19]: 0 | Soybean plant response rating (soybean (Glycine max); [12]): 0 | Plant response rating, Soybean (soybean (Glycine max); [13]): 0 | Plant response rating, Soybean (soybean (Glycine max); [14]): 0 | Plant response rating, Soybean (soybean (Glycine max); [15]): 0 | Plant response rating, Soybean (soybean (Glycine max); [20]): 0 | Plant response rating, Soybean (soybean (Glycine max); [17]): 0 | Soybean plant response rating (soybean (Glycine max); [18]): 0 | Soybean plant response rating (soybean (Glycine max); [19]): 0 | Corn plant response rating (corn (Zea mays); [12]): 0 | Plant response rating, Corn (corn (Zea mays); [13]): 0 | Plant response rating, Corn (corn (Zea mays); [14]): 25 | Plant response rating, Corn (corn (Zea mays); [15]): 100 | Plant response rating, Corn (corn (Zea mays); [16]): 65 | Plant response rating, Corn (corn (Zea mays); [17]): 85 | Corn plant response rating (corn (Zea mays); [18]): 0 | Corn plant response rating (corn (Zea mays); [19]): 0 | Cocklebur plant response rating ([3]; postemergence, 0-100 scale): 0 | Plant response rating, Cocklebur [3, 13]: 0 | Plant response rating, Cocklebur [3, 14]: 0 | Plant response rating, Cocklebur [3, 15]: 0 | Plant response rating, Cocklebur [3, 22]: 0 | Plant response rating, Cocklebur [3, 16]: 0 | Plant response rating, Cocklebur [3, 17]: 0 | Cocklebur plant response rating ([3]; Preemergence, scale 0 to 100): 0 | Plant response rating, Sunflower [4, 23]: 0 | Plant response rating, Sunflower ([4]; 62 g ai/ha, scale 0 to 100): 0 | Sunflower plant response rating ([4]; 8 g ai/ha, scale 0 to 100): 0 | Sunflower plant response rating ([4]; 16 g ai/ha, scale 0 to 100): 0 | Surinam Grass plant response rating [5, 12]: 50 | Plant response rating, Surinam Grass [5, 13]: 95 | Plant response rating, Surinam Grass [5, 14]: 98 | Plant response rating, Surinam Grass [5, 15]: 100 | Plant response rating, Surinam Grass [5, 20]: 55 | Plant response rating, Surinam Grass [5, 21]: 85 | Surinam Grass plant response rating [5, 18]: 0 | Surinam Grass plant response rating [5, 19]: 0 | Lambsquarters plant response rating [6, 12]: 0 | Plant response rating, Lambsquarters [6, 13]: 0 | Plant response rating, Lambsquarters [6, 14]: 0 | Plant response rating, Lambsquarters [6, 15]: 0 | Plant response rating, Lambsquarters [6, 16]: 0 | Plant response rating, Lambsquarters [6, 17]: 0 | Lambsquarters plant response rating [6, 18]: 0 | Lambsquarters plant response rating [6, 19]: 0 | Ragweed plant response rating [7, 12]: 0 | Plant response rating, Ragweed [7, 13]: 0 | Plant response rating, Ragweed [7, 14]: 0 | Plant response rating, Ragweed [7, 15]: 0 | Plant response rating, Ragweed [7, 20]: 0 | Plant response rating, Ragweed [7, 17]: 0 | Ragweed plant response rating [7, 18]: 0 | Ragweed plant response rating [7, 19]: 0 | Bermudagrass plant response rating ([8]; postemergence, 0-100 scale): 100 | Plant response rating, Bermudagrass [8, 13]: 100 | Plant response rating, Bermudagrass [8, 14]: 100 | Plant response rating, Bermudagrass [8, 15]: 100 | Bermudagrass plant response rating ([8]; Preemergence, scale 0 to 100 (0 no effect, 100 complete control)): 0 | Plant response rating, Bermudagrass [8, 22]: 0 | Plant response rating, Bermudagrass [8, 16]: 0 | Plant response rating, Bermudagrass [8, 17]: 0 | Kochia plant response rating (kochia (Kochia scoparia); [12]): 0 | Plant response rating, Kochia (kochia (Kochia scoparia); [13]): 0 | Plant response rating, Kochia (kochia (Kochia scoparia); [14]): 0 | Plant response rating, Kochia (kochia (Kochia scoparia); [15]): 0 | Plant response rating, Kochia (kochia (Kochia scoparia); [16]): 0 | Plant response rating, Russian Thistle [9, 23]: 0 | Plant response rating, Russian Thistle ([9]; 62 g ai/ha, scale 0 to 100): 0 | Russian Thistle plant response rating ([9]; 8 g ai/ha, scale 0 to 100): 0 | Russian Thistle plant response rating ([9]; 16 g ai/ha, scale 0 to 100): 0 | Goosegrass plant response rating [10, 12]: 55 | Plant response rating, Goosegrass [10, 13]: 65 | Plant response rating, Goosegrass [10, 14]: 70 | Plant response rating, Goosegrass [10, 15]: 98 | Plant response rating, Goosegrass [10, 16]: 0 | Plant response rating, Goosegrass [10, 17]: 0 | Goosegrass plant response rating [10, 18]: 0 | Goosegrass plant response rating [10, 19]: 0 | Plant response rating, Ducksalad ([11]; 62 g ai/ha): 0 | Plant response rating, Ducksalad ([11]; 250 g ai/ha): 0
